According to patent US20040131567A1 (priority 2002, published 2004):

How the values were obtained:
[1] = system: Bacillus anthracis Stearns strain; type: cell-based
[2] = system: Bacillus anthracis Ames strain; type: cell-based
[3] = system: Paenibacillus polymyxa, Bacillus licheniformis, Bacillus subtilis, Bacillus sphaericus, Bacillus cereus and a wild Bacillus strain; type: cell-based, Bacillus species; settings: for average zone of inhibition: 3 replicate assays
psoriasis = settings: in vivo
[4] = system: dry/cracking and scaly elbows; type: in vivo, human; settings: regimen tried prior to the inventive composition
Staphylococcus aureus = type: cell-based; parameters: key: NG = no growth; settings: S. aureus >10^5 CFU/ml inoculated into 2 ml d-limonene
[5] = system: Staphylococcus epidermidis; type: cell-based; parameters: key: NG = no growth; settings: S. epidermidis >10^5 CFU/ml inoculated into 2 ml d-limonene
Enterococcus faecalis = type: cell-based; parameters: key: NG = no growth; settings: E. faecalis >10^5 CFU/ml inoculated into 2 ml d-limonene
Enterococcus faecium = type: cell-based; parameters: key: NG = no growth; settings: E. faecium >10^5 CFU/ml inoculated into 2 ml d-limonene
Escherichia coli = type: cell-based; parameters: key: NG = no growth; settings: E. coli >10^5 CFU/ml inoculated into 2 ml d-limonene
Enterobacter cloacae = type: cell-based; parameters: key: NG = no growth
Klebsiella pneumoniae = type: cell-based; parameters: key: NG = no growth; settings: K. pneumoniae >10^5 CFU/ml inoculated into 2 ml d-limonene
Serratia marcescens = type: cell-based; parameters: key: NG = no growth
Pseudomonas aeruginosa = type: cell-based; parameters: key: NG = no growth; settings: P. aeruginosa >10^5 CFU/ml inoculated into 2 ml d-limonene
[6] = system: Acinetobacter baummii/haemolyticus; type: cell-based; parameters: key: NG = no growth; settings: Ac. baum/haemo >10^5 CFU/ml inoculated into 2 ml d-limonene
[7] = system: Stenotrophomonas maltophila; type: cell-based; parameters: key: NG = no growth
[8] = system: gram-positive and gram-negative pathogens; type: cell-based
[9] = system: Staphylococcus aureus, Staphylococcus epidermidis, Streptococcus pyogenes, Streptococcus mutans, other beta hemolytic streptococci, Entercoccus faecalis …; type: cell-based; settings: in vitro
[10] = system: Escherichia coli, Enterobactor cloacae, Klebsiella pneumoniae, Serratia marcescens, Pseudomonas aeruginosa, Acinetobacter baummii/haemolyticus, Paenibacillus …; type: cell-based; settings: in vitro
[11] = system: Bacillus licheniformis, B. sphaericus, Bacillus cereus, Bacillus subtilus, Bacillus anthracis (Stearns and Ames strains); type: cell-based, Bacillus species

O=[N+]([O-])[O-].[Ag+] [AgNO3, silver nitrate]
zone of inhibition (average inhibition zone) [1]: 18 mm | zone of inhibition [2]: 16 mm | average zone of inhibition ([3]; six Bacillus strains): 16 mm

O=C(O)c1cn(C2CC2)c2cc(N3CCNCC3)c(F)cc2c1=O [CIPRO]
effect of earlier treatments on the psoriasis (psoriasis): Neither treatment was effective | side effects (psoriasis): unpleasant side effects

NC(=O)N/N=C/c1ccc([N+](=O)[O-])o1 [Furacin, nitrofurazone]
average zone of inhibition ([3]; six Bacillus strains): 35 mm

OCl [NaOCl, sodium hypochlorite]
susceptibility of the strain to the product [1]: susceptible to all products tested except | zone of inhibition [2]: no zones of inhibition | average zone size ([3]; only the inhibited strains P. Polymyxa, B. sphaericus and B. cereus): 16 mm | inhibition of the Bacillus strains (which strains) ([3]; six Bacillus strains): only inhibited P. Polymyxa, B. sphaericus and B. cereus

COc1cc(C)c(/C=C/C(C)=C/C=C/C(C)=C/C(=O)O)c(C)c1C [SORIATANE]
effect of earlier treatments on the psoriasis (psoriasis): Neither treatment was effective | side effects (psoriasis): unpleasant side effects

NCc1ccc(S(N)(=O)=O)cc1 [mafenide acetate]
susceptibility of the strain to the product [1]: susceptible | susceptibility of the strain to the product [2]: susceptible | average zone of inhibition ([3]; six Bacillus strains): 36 mm

Vitamin E
effect of earlier regimen on the condition [4]: no improvement | effect of earlier treatments on the psoriasis (psoriasis): no results

d-limonene
Growth at 24 hr (Staphylococcus aureus; 24 hr): NG* | Growth at 48 hr (Staphylococcus aureus; 48 hr): NG | Growth at 72 hr (Staphylococcus aureus; 72 hr): NG | Growth at 24 hr ([5]; 24 hr): NG | Growth at 48 hr ([5]; 48 hr): NG | Growth at 72 hr ([5]; 72 hr): NG | Growth at 24 hr (Enterococcus faecalis; 24 hr): NG | Growth at 48 hr (Enterococcus faecalis; 48 hr): NG | Growth at 72 hr (Enterococcus faecalis; 72 hr): NG | Growth at 24 hr (Enterococcus faecium; 24 hr): NG | Growth at 48 hr (Enterococcus faecium; 48 hr): NG | Growth at 72 hr (Enterococcus faecium; 72 hr): NG | Growth at 24 hr (Escherichia coli; 24 hr): NG | Growth at 48 hr (Escherichia coli; 48 hr): NG | Growth at 72 hr (Escherichia coli; 72 hr): NG | Growth at 24 hr (Enterobacter cloacae): NG | Growth at 48 hr (Enterobacter cloacae): NG | Growth at 72 hr (Enterobacter cloacae): NG | Growth at 24 hr (Klebsiella pneumoniae; 24 hr): NG | Growth at 48 hr (Klebsiella pneumoniae; 48 hr): NG | Growth at 72 hr (Klebsiella pneumoniae; 72 hr): NG | Growth at 24 hr (Serratia marcescens): NG* | Growth at 48 hr (Serratia marcescens): NG | Growth at 72 hr (Serratia marcescens): NG | Growth at 24 hr (Pseudomonas aeruginosa; 24 hr): NG | Growth at 48 hr (Pseudomonas aeruginosa; 48 hr): NG | Growth at 72 hr (Pseudomonas aeruginosa; 72 hr): NG | Growth at 24 hr ([6]; 24 hr): NG | Growth at 48 hr ([6]; 48 hr): NG | Growth at 72 hr ([6]; 72 hr): NG | Growth at 24 hr [7]: NG | Growth at 48 hr [7]: NG | Growth at 72 hr [7]: NG | effectiveness in killing or inhibiting growth of gram-positive and gram-negative bacteria [8]: effective in killing or inhibiting the growth | time within which all pathogens tested were effectively eradicated [8]: ≤ 24 h | zone of inhibition (average inhibition zone) [1]: 30 mm | zone of inhibition [2]: 21 mm | average zone of inhibition ([3]; six Bacillus strains): 21 mm | effectiveness in eradicating gram-positive pathogens [9]: effective in eradicating | effectiveness in eradicating gram-negative pathogens [10]: effective in eradicating | effectiveness in eradicating Bacillus species [11]: effective in eradicating
